Measurements: US20020042079A1, “METHODS AND AGENTS FOR MEASURING AND CONTROLLING MULTIDRUG RESISTANCE” (priority 1994, published 2002)
“Also recorded” adds a separate entry of the source.

Legend:
MCF-7/ADR cells [1] = assay: Subcellular distribution of Adriamycin fluorescence (confocal microscopy); assay type: cell-based, human; conditions: MCF-7/ADR, Monensin 5 μM, Bafilomycin A1 500 nM, concanomycin 100 nM, Tamoxifen 10 μM (50 μM in Example 3), verapamil 10 μM, cyclosporin 5 μM
Method: Adriamycin can be excited between 350 nm-550 nm and emits between 400 nm-700 nm.
Labeling of Cells with Adriamycin: Cells were loaded with Adriamycin (10 μM) added to the perfusion medium. […] For epi-fluorescence, the cells were excited with 450-490 nm filter and emission was monitored with a 510 nm longpass filter.

MCF-7adr cells [2] = assay: Intravesicular pH with SNAFL-calcein; assay type: cell-based, human; conditions: monensin 10 μg/ml for 30 minutes
Description: FIG. 6a-6c show Measurements of Intravesicular pH utilizing SNAFL-calcein. […] In contrast, significant pH gradients, including an acidic pericentriolar labeling is observed in MCF7adr cells (FIG. 6b). The intravesicular pH in drug-resistant MCF-7adr cells (white bars) is […] than the vesicular pH of the drug-sensitive parental MCF-7 (black bars) (FIG. 6c). This acidic pH difference is reduced by treatment of MCF-7adr cells with monensin (dark grey). Methods: The acetoxymethylester derivative of SNAFL-calcein (15 μg/ml) (a radiometric fluorescent probe for pH) was added to both MCF-7 and MCF-7adr cells. The ester linked fluorescent probe enters the cell passively where the esters are hydrolyzed by esterases located in the cytoplasm and intracellular vesicles. […] The cells were incubated at 37° C. for 45 minutes and then examined in with the Insight confocal fluorescence. […] To obtain a quantitative relationship between emission ratios and pH, each SNAFL-calcein stained cell line was exposed to a buffer at a known pH containing nigericin/high K^+ (18 μM/150 mM KCl). […] These values were then incorporated into a pH imaging routine that provides a direct read-out of pH values for individual intracellular compartments that are queried on the computer screen. […] (c) To prepare histograms of vesicular pH, 5 vesicles within a confocal section were analyzed/cell (20 cells per cell type). […]

MCF-7/ADR cells [3] = assay: Cell viability assay of Adriamycin sensitivity (Hoechst 33258 DNA content); conditions: for effect on sensitivity of drug-resistant cells to Adriamycin: MCF-7/ADR (MCF-7adr) cells, agent co-incubated with adriamycin for 6 hours
Method: After 6 hours, the media was removed, the cells rinsed, and then fed with fresh media not containing drugs. […] Media was aspirated and the wells rinsed with Hanks Balanced Salt Solution (HBSS, phenol red free). The cells were sonicated in hypotonic media (0.1×HBSS) for 30 seconds. […] Calf thymus DNA was used for calibration.
Cell viability assays: The media was removed 60 hr. after plating the cells and replaced with fresh media supplemented with various concentrations of adriamycin (Calbiochem, CA) and monensin (solubilized in DMF 0.1%) (Sigma, St. Louis). After 6 hr the media was removed, the cells rinsed, and then fed with fresh media not containing drugs. […] Media was aspirated and the wells rinsed with Hanks Balanced Salt Solution (HBSS, phenol red free). The cells were sonicated in hypotonic media (0.1×HBSS) for 30 seconds. […] Calf thymus DNA was used for calibration.
Cell Viability Assays: Cell viability was assayed by plating cells at ˜1000 cells/well in 24 well plates (Falcon) in DME. […] The cells were fed daily for three days and then cell viability was quantified with two independent techniques: an assay of total DNA and an assay of volume of viable cells. […] Calf thymus DNA was used for calibration.
After three days cell viability was assayed.

MCF-7adr cells [4] = assay: Bodipy-ceramide and Bodipy-lactalbumin labeling of TGN and pericentriolar recycling compartment; assay type: cell-based, human; conditions: tamoxifen treatment of MCF-7adr cells
Description: Endocytotic pathway (fourth row): To examine internalization, Bodipy-lactalbumin (Bodipy-Lac, Molecular Probes, Eugene, Oreg.) was used as a fluid phase marker.
Conversion of Bodipy-ceramide to Bodipy-sphingomyelin (in cis-Golgi) is associated with the movement of the newly synthesized fluorescent lipid to the trans-Golgi network (TGN). As the Bodipy-sphingomyelin concentration increases within the TGN and secretory vesicles, a long wavelength shift in fluorescence occurs that results in red fluorescent structures (TGN and secretory vesicles) against a green fluorescent background. […] To examine internalization, Bodipy-lactalbumin (Bodipy-Lac, Molecular Probes, Eugene, Oreg.) was used as a fluid phase marker.

[5] = test system: fresh liver and kidney tissue from mice; assay: In vitro acidification of organelles from fresh tissue; assay type: biochemical
Description: The in vitro acidification assay used purified microsomes that had been resuspended in a salt buffer without additional cytosolic or nuclear components.

MDA-A1 cells = assay: Acridine orange labeling of acidic compartments; assay type: cell-based, human; conditions: 10 μM Tamoxifen, estrogen receptor negative cells
Method: Labeling of Cells with Acridine Orange: To examine intracellular acidic compartments, acridine orange (6 μM in medium from a 10 mM stock in water) was added directly to cells in the Lab-Tek chambers and the cells were incubated for 15 minutes. Cells in the presence of acridine orange were then examined utilizing an excitation at 488 nm and dual emission confocal images were simultaneously recorded using both a 530-30 band pass barrier filter (green fluorescence) and a 605 nm long pass barrier filter (red fluorescence). Optical sections of the fluorescent samples were recorded at 0.5 micron intervals with a 60×oil immersion objective.
There is red fluorescence in punctate cytoplasmic organelles and in a perinuclear region.

MCF-7/ADR cells [6] = assay: Transport of BODIPY-transferrin from recycling endosomes to cell surface

Compound	Adriamycin distribution after addition of agent (MCF-7/ADR cells [1])	Adriamycin distribution after addition of agent (MCF-7/ADR cells [1]; listed as monensin)	pH of acidic vesicular compartments after treatment (MCF-7adr cells [2])	effect on sensitivity of drug-resistant cells to Adriamycin (MCF-7/ADR cells [3])	Adriamycin distribution after addition of agent (MCF-7/ADR cells [1]; listed as tamoxifen)	TGN structure (Bodipy-ceramide labeling) (MCF-7adr cells [4])	structure of the PRC (bodipy-lactalbumin labeling) (MCF-7adr cells [4])	effect on in vitro acidification compared with MCF-7/ADR microsomes [5]	red acridine orange fluorescence after Tamoxifen (MDA-A1 cells)	red acridine orange fluorescence after Tamoxifen (MDA-A1 cells; listed as tamoxifen)	cell death (MCF-7/ADR cells [3]; 1 μM Adriamycin in the presence of 5 μM Tamoxifen, 6 hours exposure, assayed after three days) [%]	cell viability in the absence of Adriamycin (MCF-7/ADR cells [3]; 5 μM Tamoxifen alone)	effect on sensitivity of drug-resistant cells to Adriamycin (MCF-7/ADR cells [3]; listed as tamoxifen)	time for intracellular BODIPY-transferrin to decrease to 50% of its steady-state level (MCF-7/ADR cells [6]; 10 μM tamoxifen) [min]	BODIPY-transferrin remaining with cells after 25 minutes (MCF-7/ADR cells [6]; Tamoxifen 10 μM)	BODIPY-transferrin remaining with cells after five minutes (MCF-7/ADR cells [6]; Tamoxifen 10 μM)
CC[C@@]1([C@@H]2O[C@@H]([C@H]3O[C@@](O)(CO)[C@H](C)C[C@@H]3C)C[C@@H]2C)CC[C@H]([C@]2(C)CC[C@]3(C[C@H](O)[C@@H](C)[C@@H]([C@@H](C)[C@@H](OC)[C@H](C)C(=O)O)O3)O2)O1 [Monensin]	Adriamycin is found to accumulate within the nucleus	redistributed Adriamycin to the nucleoplasm	alkalization of acidic vesicular compartments to pH values observed for drug sensitive MCF-7 cells	increased the drug sensitivity of the MCF-7adr cells to the level observed for drug-sensitive cells												
CC/C(=C(\c1ccccc1)c1ccc(OCCN(C)C)cc1)c1ccccc1 [Tamoxifen]	the concentration of Adriamycin in the nucleus was substantially increased			substantially increased the sensitivity of the cells to Adriamycin	shifts the adriamycin distribution to that observed in the MCF-7 cells; also recorded: shift of Adriamycin from punctate perinuclear compartments	produces a similar fragmentation of TGN structure	disrupts the structure of the PRC	similar	substantial reduction in the red acridine orange fluorescence	substantial decrease in the red acridine orange fluorescence	95	no decrease in viability; also recorded: little effect on cell viability	significantly enhanced sensitivity to adriamycin	30	More than 60%	more than 90%
